Measurements taken from patent US8729082B2, “Substituted imidazoquinoxalines” (Bayer Intellectual Property GmbH, priority 2009, dated 2014).

Target: T1, human kinase Mps-1 (Homo sapiens, UniProt P33981)
T1 construct: N-terminally GST-tagged human full length recombinant Mps-1 kinase; purchased Invitrogen, Karslruhe, Germany PV4071
T1 sequence (P33981 1-857): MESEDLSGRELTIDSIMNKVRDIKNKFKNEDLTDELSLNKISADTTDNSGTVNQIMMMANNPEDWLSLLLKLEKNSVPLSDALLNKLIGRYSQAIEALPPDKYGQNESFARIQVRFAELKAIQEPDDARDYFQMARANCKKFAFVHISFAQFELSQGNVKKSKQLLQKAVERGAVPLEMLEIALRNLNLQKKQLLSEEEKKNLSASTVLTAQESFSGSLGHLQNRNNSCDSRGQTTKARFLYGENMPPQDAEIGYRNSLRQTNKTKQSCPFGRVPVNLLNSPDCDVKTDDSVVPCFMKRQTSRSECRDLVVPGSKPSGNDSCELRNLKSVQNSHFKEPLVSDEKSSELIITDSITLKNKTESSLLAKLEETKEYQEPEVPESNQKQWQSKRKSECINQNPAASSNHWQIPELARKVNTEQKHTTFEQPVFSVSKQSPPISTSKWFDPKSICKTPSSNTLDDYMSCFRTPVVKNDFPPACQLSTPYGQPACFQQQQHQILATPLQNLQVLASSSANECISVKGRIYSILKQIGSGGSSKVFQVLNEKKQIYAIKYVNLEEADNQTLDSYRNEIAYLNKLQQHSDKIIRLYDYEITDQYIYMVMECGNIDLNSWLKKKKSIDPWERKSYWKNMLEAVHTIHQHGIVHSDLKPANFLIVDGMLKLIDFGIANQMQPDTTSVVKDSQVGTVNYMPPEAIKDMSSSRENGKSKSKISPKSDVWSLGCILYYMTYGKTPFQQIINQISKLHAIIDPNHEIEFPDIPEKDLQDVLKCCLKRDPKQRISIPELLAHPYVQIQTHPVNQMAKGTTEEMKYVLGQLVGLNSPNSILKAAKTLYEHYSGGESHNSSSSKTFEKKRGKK
Test: Mps-1 kinase assay (HTRF)
Assay type: biochemical
Settings: lowATP; mean; read-out: Mps1 lowATP mean IC50
In short: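 HTRF readout: EDTA-stopped reactions incubated 1 h with europium anti-phospho(Ser/Thr) antibody and streptavidin-XLent, emission ratio 665/620 nm after 350 nm excitation. Kinase step: compound pre-bound 15 min to ~1 nM GST-Mps-1, then 60 min at 22 °C with ATP and biotin-peptide substrate; inhibition scaled between no-inhibitor (0%) and no-enzyme (100%) controls.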

Row | IC50 [nM] | SMILES
1 | 5.44 | Cc1cc2nc(NCc3cnn(C)c3)c3ncc(-c4ccc(C(=O)NC5CC5)cc4)n3c2cc1C [Example 2-157, N-cyclopropyl-4-(7,8-dimethyl-4-{[(1-methyl-1H-pyrazol-4-yl)methyl]amino}imidazo[1,2-a]quinoxalin-1-yl)benzamide]
2 | 163 | CCCNc1nc2cc(C)c(C)cc2n2c(-c3ccc(NC(=O)NC)cc3)cnc12 [Example 2-159, 1-{4-[7,8-dimethyl-4-(propylamino)imidazo[1,2-a]quinoxalin-1-yl]phenyl}-3-methylurea]
3 | 982 | CNC(=O)Nc1ccc(-c2cnc3c(NCCCN4CCOCC4)nc4cc(C)c(C)cc4n23)cc1 [Example 2-160, 1-[4-(7,8-dimethyl-4-{[3-(morpholin-4-yl)propyl]amino}imidazo[1,2-a]quinoxalin-1-yl)phenyl]-3-methylurea]
4 | 1310 | CNC(=O)Nc1ccc(-c2cnc3c(NCc4cccc(F)c4)nc4cc(C)c(C)cc4n23)cc1 [Example 2-161, 1-(4-{4-[(3-fluorobenzyl)amino]-7,8-dimethylimidazo[1,2-a]quinoxalin-1-yl}phenyl)-3-methylurea]
5 | 417 | CNC(=O)Nc1ccc(-c2cnc3c(NCCOC)nc4cc(C)c(C)cc4n23)cc1 [Example 2-162, 1-(4-{4-[(2-methoxyethyl)amino]-7,8-dimethylimidazo[1,2-a]quinoxalin-1-yl}phenyl)-3-methylurea]
6 | 1470 | CNC(=O)Nc1ccc(-c2cnc3c(NCc4ccccc4F)nc4cc(C)c(C)cc4n23)cc1 [Example 2-163, 1-(4-{4-[(2-fluorobenzyl)amino]-7,8-dimethylimidazo[1,2-a]quinoxalin-1-yl}phenyl)-3-methylurea]
7 | 414 | CNC(=O)Nc1ccc(-c2cnc3c(NCc4ccc(F)cc4)nc4cc(C)c(C)cc4n23)cc1 [Example 2-164, 1-(4-{4-[(4-fluorobenzyl)amino]-7,8-dimethylimidazo[1,2-a]quinoxalin-1-yl}phenyl)-3-methylurea]
8 | 265 | CNC(=O)Nc1ccc(-c2cnc3c(NCCCCO)nc4cc(C)c(C)cc4n23)cc1 [Example 2-165, 1-(4-{4-[(4-hydroxybutyl)amino]-7,8-dimethylimidazo[1,2-a]quinoxalin-1-yl}phenyl)-3-methylurea]
9 | 609 | CNC(=O)Nc1ccc(-c2cnc3c(NCc4ccccc4)nc4cc(C)c(C)cc4n23)cc1 [Example 2-166, 1-{4-[4-(benzylamino)-7,8-dimethylimidazo[1,2-a]quinoxalin-1-yl]phenyl}-3-methylurea]
10 | 469 | CNC(=O)Nc1ccc(-c2cnc3c(NCc4cccs4)nc4cc(C)c(C)cc4n23)cc1 [Example 2-167, 1-(4-{7,8-dimethyl-4-[(thiophen-2-ylmethyl)amino]imidazo[1,2-a]quinoxalin-1-yl}phenyl)-3-methylurea]
11 | 134 | CCNc1nc2cc(C)c(C)cc2n2c(-c3ccc(NC(=O)NC)cc3)cnc12 [Example 2-168, 1-{4-[4-(ethylamino)-7,8-dimethylimidazo[1,2-a]quinoxalin-1-yl]phenyl}-3-methylurea]
12 | 274 | CNC(=O)Nc1ccc(-c2cnc3c(NCCCn4ccnc4)nc4cc(C)c(C)cc4n23)cc1 [Example 2-169, 1-[4-(4-{[3-(1H-imidazol-1-yl)propyl]amino}-7,8-dimethylimidazo[1,2-a]quinoxalin-1-yl)phenyl]-3-methylurea]
13 | 312 | CNC(=O)Nc1ccc(-c2cnc3c(NCC4CC4)nc4cc(C)c(C)cc4n23)cc1 [Example 2-170, 1-(4-{4-[(cyclopropylmethyl)amino]-7,8-dimethylimidazo[1,2-a]quinoxalin-1-yl}phenyl)-3-methylurea]

The remaining lines, values behind:

Row | SMILES | IC50 [nM]
14 | CC(C)(C)OC(=O)NCCCNc1nc2cc(F)c(F)cc2n2c(-c3ccc(C(=O)NC4CC4)c(Cl)c3)cnc12 [Example 2-140, tert-butyl [3-({1-[3-chloro-4-(cyclopropylcarbamoyl)phenyl]-7,8-difluoroimidazo[1,2-a]quinoxalin-4-yl}amino)propyl]carbamate] | 3410
15 | Cn1ccc(CNc2nc3cc(F)c(F)cc3n3c(-c4ccc(C(=O)NC5CC5)c(Cl)c4)cnc23)n1 [Example 2-141, 2-chloro-N-cyclopropyl-4-(7,8-difluoro-4-{[(1-methyl-1H-pyrazol-3-yl)methyl]amino}imidazo[1,2-a]quinoxalin-1-yl)benzamide] | 4450
16 | Cn1cc(CNc2nc3cc(F)c(F)cc3n3c(-c4ccc(C(=O)NC5CC5)c(Cl)c4)cnc23)cn1 [Example 2-142, 2-chloro-N-cyclopropyl-4-(7,8-difluoro-4-{[(1-methyl-1H-pyrazol-4-yl)methyl]amino}imidazo[1,2-a]quinoxalin-1-yl)benzamide] | 2280
17 | NS(=O)(=O)CCNc1nc2cc(F)c(F)cc2n2c(-c3ccc(C(=O)NC4CC4)c(Cl)c3)cnc12 [Example 2-143, 2-chloro-N-cyclopropyl-4-{7,8-difluoro-4-[(2-sulfamoylethyl)amino]imidazo[1,2-a]quinoxalin-1-yl}benzamide] | 1240
18 | CCCNc1nc2cc(C)c(C)cc2n2c(-c3ccc(C(=O)NC4CC4)cc3)cnc12 [Example 2-144, N-cyclopropyl-4-[7,8-dimethyl-4-(propylamino)imidazo[1,2-a]quinoxalin-1-yl]benzamide] | 4.15
19 | Cc1cc2nc(NCCC(C)C)c3ncc(-c4ccc(C(=O)NC5CC5)cc4)n3c2cc1C [Example 2-145, N-cyclopropyl-4-{7,8-dimethyl-4-[(3-methylbutyl)amino]imidazo[1,2-a]quinoxalin-1-yl}benzamide] | 5.61
20 | Cc1cc2nc(NCCCCO)c3ncc(-c4ccc(C(=O)NC5CC5)cc4)n3c2cc1C [Example 2-146, N-cyclopropyl-4-{4-[(4-hydroxybutyl)amino]-7,8-dimethylimidazo[1,2-a]quinoxalin-1-yl}benzamide] | 2.83
21 | CCNc1nc2cc(C)c(C)cc2n2c(-c3ccc(C(=O)NC4CC4)cc3)cnc12 [Example 2-147, N-cyclopropyl-4-[4-(ethylamino)-7,8-dimethylimidazo[1,2-a]quinoxalin-1-yl]benzamide] | 4.5
22 | Cc1cc2nc(NCCCO)c3ncc(-c4ccc(C(=O)NC5CC5)cc4)n3c2cc1C [Example 2-148, N-cyclopropyl-4-{4-[(3-hydroxypropyl)amino]-7,8-dimethylimidazo[1,2-a]quinoxalin-1-yl}benzamide] | 5.92
23 | CCCCNc1nc2cc(C)c(C)cc2n2c(-c3ccc(C(=O)NC4CC4)cc3)cnc12 [Example 2-149, 4-[4-(butylamino)-7,8-dimethylimidazo[1,2-a]quinoxalin-1-yl]-N-cyclopropylbenzamide] | 2.86
24 | Cc1cc2nc(NCC3CC3)c3ncc(-c4ccc(C(=O)NC5CC5)cc4)n3c2cc1C [Example 2-150, N-cyclopropyl-4-{4-[(cyclopropylmethyl)amino]-7,8-dimethylimidazo[1,2-a]quinoxalin-1-yl}benzamide] | 2.64
25 | Cc1cc2nc(NCc3ccccn3)c3ncc(-c4ccc(C(=O)NC5CC5)cc4)n3c2cc1C [Example 2-151, N-cyclopropyl-4-{7,8-dimethyl-4-[(pyridin-2-ylmethyl)amino]imidazo[1,2-a]quinoxalin-1-yl}benzamide] | 19.5
26 | Cc1cc2nc(NCc3cccnc3)c3ncc(-c4ccc(C(=O)NC5CC5)cc4)n3c2cc1C [Example 2-152, N-cyclopropyl-4-{7,8-dimethyl-4-[(pyridin-3-ylmethyl)amino]imidazo[1,2-a]quinoxalin-1-yl}benzamide] | 6.01
27 | Cc1cc2nc(NCc3ccco3)c3ncc(-c4ccc(C(=O)NC5CC5)cc4)n3c2cc1C [Example 2-153, N-cyclopropyl-4-{4-[(furan-2-ylmethyl)amino]-7,8-dimethylimidazo[1,2-a]quinoxalin-1-yl}benzamide] | 5.22
28 | Cc1cc2nc(NCC(C)C)c3ncc(-c4ccc(C(=O)NC5CC5)cc4)n3c2cc1C [Example 2-154, N-cyclopropyl-4-{7,8-dimethyl-4-[(2-methylpropyl)amino]imidazo[1,2-a]quinoxalin-1-yl}benzamide] | 2.22
29 | COCCCNc1nc2cc(C)c(C)cc2n2c(-c3ccc(C(=O)NC4CC4)cc3)cnc12 [Example 2-155, N-cyclopropyl-4-{4-[(3-methoxypropyl)amino]-7,8-dimethylimidazo[1,2-a]quinoxalin-1-yl}benzamide] | 7.71
30 | Cc1cc2nc(NCc3ccn(C)n3)c3ncc(-c4ccc(C(=O)NC5CC5)cc4)n3c2cc1C [Example 2-156, N-cyclopropyl-4-(7,8-dimethyl-4-{[(1-methyl-1H-pyrazol-3-yl)methyl]amino}imidazo[1,2-a]quinoxalin-1-yl)benzamide] | 8.49
